From ChEMBL document CHEMBL1139093, “1,3-diaminopropan-2-ol sulfonamides as potent and selective inhibitors of the glycine transporter type 1” (Bioorg Med Chem Lett, 2007)

What was measured:
[1] = biological target: T1, Sodium- and chloride-dependent glycine transporter 1 (Homo sapiens, UniProt P48067)
T1 sequence (P48067 whole entry): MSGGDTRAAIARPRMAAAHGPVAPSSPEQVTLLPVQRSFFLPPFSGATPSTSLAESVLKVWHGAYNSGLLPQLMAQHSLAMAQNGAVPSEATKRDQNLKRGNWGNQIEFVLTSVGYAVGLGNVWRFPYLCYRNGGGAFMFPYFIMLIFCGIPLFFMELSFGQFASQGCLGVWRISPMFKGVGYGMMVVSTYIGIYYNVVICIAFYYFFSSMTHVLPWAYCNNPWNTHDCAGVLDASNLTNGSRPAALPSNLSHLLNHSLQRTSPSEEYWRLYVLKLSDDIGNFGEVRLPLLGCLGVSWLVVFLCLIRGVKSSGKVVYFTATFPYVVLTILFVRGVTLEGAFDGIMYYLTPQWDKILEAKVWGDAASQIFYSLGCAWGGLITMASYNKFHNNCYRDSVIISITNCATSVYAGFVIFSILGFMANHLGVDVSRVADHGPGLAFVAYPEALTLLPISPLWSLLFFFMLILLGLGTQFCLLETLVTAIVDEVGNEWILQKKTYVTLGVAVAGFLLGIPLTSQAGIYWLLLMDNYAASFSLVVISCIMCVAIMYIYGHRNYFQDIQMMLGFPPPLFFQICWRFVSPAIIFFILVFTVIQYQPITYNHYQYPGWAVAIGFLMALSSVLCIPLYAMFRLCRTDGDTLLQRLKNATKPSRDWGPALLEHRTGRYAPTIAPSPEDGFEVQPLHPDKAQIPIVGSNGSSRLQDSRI
Description: (§1) Inhibition of [3H]glycine uptake in human GlyT1c expressed in HEK293 cells

[2] = biological target: T1, Sodium- and chloride-dependent glycine transporter 1; settings: hek293
Description: as §1

[3] = Cmax in rat at 5 mg/kg, sc; type: ADME, organism-based; design: dose 5 mg/kg, route subcutaneous; settings: in vivo
[4] = biological target: Cytochrome P450 2D6 (Homo sapiens, UniProt P10635); assay: Binding affinity to CYP2D6; type: ADME
Cytochrome P450 2D6, sequence (P10635 whole entry): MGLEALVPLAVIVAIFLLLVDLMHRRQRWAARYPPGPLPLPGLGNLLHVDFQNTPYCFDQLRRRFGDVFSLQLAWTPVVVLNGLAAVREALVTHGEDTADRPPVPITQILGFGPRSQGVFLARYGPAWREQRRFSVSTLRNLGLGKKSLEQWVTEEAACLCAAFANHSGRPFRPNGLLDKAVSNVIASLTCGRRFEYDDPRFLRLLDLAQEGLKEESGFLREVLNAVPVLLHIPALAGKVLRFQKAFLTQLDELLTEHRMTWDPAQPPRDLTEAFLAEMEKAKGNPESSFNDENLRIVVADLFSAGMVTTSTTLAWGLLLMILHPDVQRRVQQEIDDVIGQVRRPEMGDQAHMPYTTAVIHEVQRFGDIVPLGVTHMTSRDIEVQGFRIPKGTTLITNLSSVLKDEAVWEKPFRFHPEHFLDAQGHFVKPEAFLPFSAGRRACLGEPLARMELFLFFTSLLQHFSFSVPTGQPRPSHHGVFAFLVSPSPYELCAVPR

[5] = system: Brain; assay: Drug level in rat brain at 5 mg/kg, sc; type: ADME, organism-based; design: dose 5 mg/kg, route subcutaneous; settings: in vivo
[6] = system: Rattus norvegicus; assay: AUC (0 to infinity) in rat at 5 mg/kg, sc; type: ADME, organism-based, Plasma; design: time infinity, dose 5 mg/kg, route subcutaneous; settings: in vivo
[7] = system: Liver microsomes; assay: Intrinsic clearance in human liver microsome; type: ADME
[8] = system: Rattus norvegicus; assay: AUC (0 to infinity) in rat plasma at 1 mg/kg, iv; type: ADME, organism-based; design: time infinity, dose 1 mg/kg, route intravenous; settings: in vivo
[9] = Half life in rat at 1 mg/kg, iv; type: ADME, organism-based; design: dose 1 mg/kg, route intravenous; settings: in vivo
[10] = Half life in rat at 5 mg/kg, sc; type: ADME, organism-based; design: dose 5 mg/kg, route subcutaneous; settings: in vivo
[11] = Oral bioavailability in rat at 5 mg/kg; type: ADME, organism-based; settings: in vivo
[12] = system: Rattus norvegicus; assay: Bioavailability in rat at 5 mg/kg, sc; type: ADME, organism-based; settings: in vivo
[13] = system: Liver microsomes; assay: Intrinsic clearance in rat liver microsome; type: ADME
[14] = AUC (0 to infinity) in rat brain at 1 mg/kg, iv; type: ADME, organism-based; design: time infinity, dose 1 mg/kg, route intravenous
[15] = Plasma clearance in rat at 1 mg/kg, iv; type: ADME, organism-based; design: dose 1 mg/kg, route intravenous

SMILES	IC50 [1]	other results
O=S(=O)(NC[C@H](O)CN1CCCC1C1CCCCC1)c1cccc2ccccc12 (single isomer, unassigned; isomer A)		Log IC50 [2]: -5.2
Cc1cc(S(=O)(=O)NC[C@H](O)CN2CC(C)CC2C)c(C)cc1Cl (stereo partly drawn)	3160 nM	
O=S(=O)(NC[C@H](O)CN1CCCCC1)c1cccc2ccccc12	3160 nM	
CC(C)(C)C1CCCN1C[C@@H](O)CNS(=O)(=O)c1cccc2ccccc12 (single isomer, unassigned; isomer A)	7940 nM	
CC1CCCN1C[C@@H](O)CNS(=O)(=O)c1cccc2ccccc12 (stereo partly drawn)	1000 nM	
CC1CC(C)N(C[C@@H](O)CNS(=O)(=O)c2ccc3ccccc3c2)C1 (stereo partly drawn)	3980 nM	
CC[C@H]1CCCCN1C[C@@H](O)CNS(=O)(=O)c1cccc2ccccc12		Cmax [3]: 564 ng/mL; Activity [4]: 1.2 µM; Drug uptake [5]: 564 ng/mL; AUC [6]: 1731 ng·h/mL; clearance [7]: 8 mL/min/g; AUC [8]: 952 ng·h/mL; half-life [9]: 60 min; half-life [10]: 54 min; bioavailability [11]: 4%; F [12]: 95%; clearance [13]: 8 mL/min/g; AUC(0-inf) [14]: 587 ng·h/mL; clearance [15]: 18 mL/min/kg
CCC1CCCN1C[C@@H](O)CNS(=O)(=O)c1cccc2ccccc12 (single isomer, unassigned; isomer B)	1580 nM	
CC(C)C1CCCCN1C[C@@H](O)CNS(=O)(=O)c1cccc2ccccc12 (single isomer, unassigned; isomer A)	3980 nM	
CC1CCC(C)N1C[C@@H](O)CNS(=O)(=O)c1cccc2ccccc12 (stereo partly drawn)	794 nM	
CC(C)C1CCCCN1C[C@@H](O)CNS(=O)(=O)c1cccc2ccccc12 (stereo in doubt)	631 nM	
CC(C)CC1CCCN1C[C@@H](O)CNS(=O)(=O)c1cccc2ccccc12 (single isomer, unassigned; isomer A)	6310 nM	
O=S(=O)(NC[C@H](O)CN1CCCC1)c1cccc2ccccc12	3160 nM	
CCCN(C[C@@H](O)CNS(=O)(=O)c1cccc2ccccc12)C(C)CC (stereo partly drawn)	1260 nM	
O=S(=O)(NC[C@H](O)CN1CCCC1C1CC1)c1cccc2ccccc12 (single isomer, unassigned; isomer B)	501 nM	
CCC1CCCN1C[C@@H](O)CNS(=O)(=O)c1cccc2ccccc12 (single isomer, unassigned; isomer A)	1260 nM	
CC(C)C1CCCN1C[C@@H](O)CNS(=O)(=O)c1cccc2ccccc12 (single isomer, unassigned; isomer B)	200 nM	

Now from value to compound, other results behind:

IC50 [1]	SMILES	other results
1000 nM	CCC1CCC(C)N(C[C@@H](O)CNS(=O)(=O)c2cccc3ccccc23)C1 (stereo partly drawn)	
12600 nM	CC1CCCN1C[C@H](O)CNS(=O)(=O)c1cccc2ccccc12 (stereo partly drawn)	
2510 nM	CC(C)CC1CCCN1C[C@@H](O)CNS(=O)(=O)c1cccc2ccccc12 (single isomer, unassigned; isomer B)	
200 nM	CC(C)(C)C1CCCN1C[C@@H](O)CNS(=O)(=O)c1cccc2ccccc12 (single isomer, unassigned; isomer B)	
3160 nM	CC1CC(C)N(C[C@@H](O)CNS(=O)(=O)c2cc(Cl)sc2Cl)C1 (stereo partly drawn)	
3980 nM	CC1CCCN(C[C@@H](O)CNS(=O)(=O)c2cccc3ccccc23)C1 (stereo partly drawn)	
1580 nM	O=S(=O)(NC[C@H](O)CN1CCCC1C1CC1)c1cccc2ccccc12 (stereo in doubt)	
316 nM	CC1CCCCN1C[C@@H](O)CNS(=O)(=O)c1cccc2ccccc12 (stereo partly drawn)	
6310 nM	O=S(=O)(NC[C@H](O)CN1CCCC1C1CCCCC1)c1cccc2ccccc12 (single isomer, unassigned; isomer B)	
2510 nM	CC1CC(C)N(C[C@@H](O)CNS(=O)(=O)c2cccc(Cl)c2Cl)C1 (stereo partly drawn)	
3160 nM	CCc1cc(Br)ccc1S(=O)(=O)NC[C@H](O)CN1CC(C)CC1C (stereo partly drawn)	
1000 nM	CCCN(C[C@@H](O)CNS(=O)(=O)c1cccc2ccccc12)C(C)(C)C	
1000 nM	CC(C)C1CCCN1C[C@@H](O)CNS(=O)(=O)c1cccc2ccccc12 (single isomer, unassigned; isomer A)	
7940 nM	CC1CCC(C)N1C[C@H](O)CNS(=O)(=O)c1cccc2ccccc12 (stereo partly drawn)	
